Test results: ChEMBL document CHEMBL1127089, “Non-nucleoside inhibitors of HIV-1 reverse transcriptase: molecular modeling and X-ray structure investigations” (J Med Chem, 1993)

biological target: Human immunodeficiency virus type 1 reverse transcriptase (Human immunodeficiency virus 1, UniProt Q72547); assay: In vitro for inhibitory activity against HIV-1 Reverse Transcriptase

Row | SMILES | IC50
1 | O=C1c2ccccc2[C@H]2SCCN1c1ccccc12 | 830 nM
2 | O=C1c2ccccc2C2(c3ccccc3)SCCN12 (stereo unspecified) | 280 nM
3 | O=C1c2ccccc2[C@@]23CC=CCC12c1ccccc1C3=O (stereo partly specified) | 8700 nM
4 | CC(C)=CCN1Cc2cccc3[nH]c(=S)n(c23)C[C@@H]1C | 160 nM
5 | Cc1cccc(C23SCCN2C(=O)c2ccccc23)c1 (stereo unspecified) | 30 nM
6 | O=C1c2ccccc2C2(c3cccc4ccccc34)SCCN12 (stereo unspecified) | 150 nM
